Assay results: patent US20080003691A1, “Method of Detecting Conformational Change of an Amyloid Protein, a Method of Searching a Substance Having an Activity that Affects to Conformational Change of an Amyloid Protein, and Method of Searching a Therapeutic or Diagnostic Agent for Amyloid-Related Diseases” (Fuence Co., Ltd., priority 2004, published 2008)

How the values were obtained:
amyloid β (1-42) = target: T1, amyloid β (1-42) (Homo sapiens, UniProt P05067); assay: changes in tension and elasticity of amyloid β (1-42) film measured with a mechanochemical sensor; type: biochemical
T1 construct: Amyloid β (1-42) (Bachem AG, Budendorf, Switzerland); purchased Bachem AG
Method: (§1) Amyloid β (1-42) (Bachem AG, Budendorf, Switzerland) was dissolved in 0.1% ammonia water at the concentration of 1 mg/mL. This solution was sprayed under dry air using an electrospry device described in WO 2002-511792 or an immobilzing device described in Japanese Patent Publication No. 2003-136005. The solution was permeated through a mask with holes of 400 μm in length and 800 μm in width, and then a film having 1 μm thickness was prepared on 1.2% polyvinyl pyrrolidone, using an electrospray method (the EDS method). Then protein was cross-linked by glutaraldehyde.
(§2) The resulting film was placed on an apparatus having a mechanochemical sensor which was described in WO 2002-503332 or U.S. Patent Publication No. 6033913, and it was immersed into 10 mM Hepes pH7.4 buffer solution (hereinafter referred to as “the buffer solution”) containing 0.15 M NaCl. The buffer solution was passed through the film existing on the detecting apparatus at the flow rate of 0.1 to 0.2 mL/min, in order to stabilize the tension of the sample film. Thereafter ZnCl2 solution dissolved in said buffer solution was passed through to detect changes in tension and elasticity (FIG. 1).
In FIG. 1, a place where the line uprises from the horizontal state (i.e. steady state), means a point where tension is given to the sample film, and compliance is detected where the line oscillates. […] It is assumed that the particular interaction referred herein is aggregation of amyloid β (1-42) caused by Zn^2+, when considered with many reports such as X. Huang et. al., (J. Biol. Chem., 1997, 272, 26464), C. S. Atwood et. al., (J. Biol. Chem., 1998, 273, 12817), or R. A. Cherny et. al., (Neuron, 2001, 30, 665).
Further, concentration of ZnCl2 was altered from 0.01 mM to 3 mM, in order to examine the effect of ZnCl2 concentration (FIG. 2).
An amyloid β (1-42) membrane was prepared and placed on a detecting apparatus, as described in EXAMPLE 1. The changes in tension and elasticity of the membrane, by CuCl2 dissolved in the buffer solution, were examined (FIG. 3). […] It has been reported that Cu^2+, as well as Zn^2+, facilitates aggregation of amyloid β.

α-synuclein = target: T2, α-synuclein (Homo sapiens, UniProt P37840); assay: changes in tension and elasticity of α-synuclein film measured with a mechanochemical sensor; type: biochemical; settings: FIG. 4
T2 construct: purchased BIOMOL International LP
Method: as §1, §2
A α-synuclein (BIOMOL International LP, PA, USA) film was prepared and placed on a detecting apparatus, as described in EXAMPLE 1. […]

T1 sequence (P05067 672-713): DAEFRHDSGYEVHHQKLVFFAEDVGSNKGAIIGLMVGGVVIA

Q: How did the “change in tension and elasticity of the amyloid β (1-42) membrane by CuCl2” value (amyloid β (1-42); CuCl2 dissolved in the buffer solution, FIG. 3) turn out when `[Cl][Cu][Cl]` [CuCl2] was run?
A: concentration-dependent change

Q: `O=C(O)CN(CCN(CC(=O)O)CC(=O)O)CC(=O)O` [EDTA] was tested. Which “tension and elasticity of the film after EDTA, relative to the state prior to addition of ZnCl2” value (amyloid β (1-42); amyloid β (1-42) film previously exposed to ZnCl2, FIG. 1) did it give?
A: restored

Q: And the “tension after EDTA, relative to the state prior to addition of CuCl2” value (amyloid β (1-42); amyloid β (1-42) membrane previously exposed to CuCl2, FIG. 3)?
A: restored by EDTA almost to the state prior to addition of CuCl2

Q: What about the “tension after EDTA, relative to the state prior to addition of ZnCl2” value (α-synuclein; α-synuclein film previously exposed to ZnCl2) of the same compound?
A: restored by EDTA almost to the state prior to addition of ZnCl2

Q: Which results are given for `[Cl-].[Cl-].[Zn+2]` [ZnCl2]?
A: change in elasticity with respect to ZnCl2 concentration (amyloid β (1-42); ZnCl2 0.01 mM to 3 mM, FIG. 2): concentration-dependent; isotropic tension and compliance (the inverse of stiffness) of the amyloid β (1-42) film (amyloid β (1-42); ZnCl2 solution in 10 mM Hepes pH7.4, 0.15 M NaCl passed over the film, FIG. 1): remarkably increased; change in tension and elasticity of the α-synuclein film by ZnCl2 (α-synuclein; ZnCl2 dissolved in the buffer solution): concentration-dependent change
